Assay results reported in patent US8450266B2 (Ipsen Pharma S.A.S., priority 2008, dated 2013).
Where a SMILES comes first, the peptide text is derived from it. [ ]: non-standard residue; d: D form. The star is where a group is joined. Decanoyl = CCCCCCCCCC(=O)*; Ac6c = NC1(C(=O)O)CCCCC1; Orn = NCCC[C@H](N)C(=O)O; X1 = CCCN1C(=O)CC(*)C1=O; Hexanoyl = CCCCCC(=O)*

Experiments:
[1] = molecular target: T1, human recombinant GIP receptor (Homo sapiens, UniProt P48546); assay: In vitro hGIP receptor binding assay ([125I]GIP displacement, CHO-K1 membranes)
T1 construct: expressed in transfected cells; host or cells: CHO-K1 clonal cells (membranes)
T1 sequence (P48546 22-466): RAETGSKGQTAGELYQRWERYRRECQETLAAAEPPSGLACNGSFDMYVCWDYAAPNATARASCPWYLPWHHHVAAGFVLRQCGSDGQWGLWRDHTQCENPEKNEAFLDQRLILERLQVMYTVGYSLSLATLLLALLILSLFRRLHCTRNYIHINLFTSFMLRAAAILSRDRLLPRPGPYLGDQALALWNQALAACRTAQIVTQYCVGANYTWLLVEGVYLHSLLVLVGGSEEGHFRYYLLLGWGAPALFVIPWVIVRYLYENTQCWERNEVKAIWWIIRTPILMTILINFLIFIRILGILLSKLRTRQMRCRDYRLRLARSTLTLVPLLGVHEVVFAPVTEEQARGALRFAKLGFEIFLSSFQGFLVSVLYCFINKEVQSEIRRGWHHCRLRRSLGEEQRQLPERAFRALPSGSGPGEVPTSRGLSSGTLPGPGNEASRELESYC
Excerpt: A. In Vitro hGIP Receptor Binding Assay

[2] = Rat plasma half-life assay (LC-MS); assay type: in vitro ADME; conditions: incubated at 37° C., read-out: Rat Plasma T½ (converted)
How it was run: (§1)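 Aliquots taken from human or rat plasma at time points up to 72 h, quenched with formic acid and acetonitrile, centrifuged. Supernatant analyzed by LC-MS (ESI, positive ion, full scan) on a C8 column with a water/acetonitrile 1% formic acid gradient.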

[3] = Human plasma half-life assay (LC-MS); assay type: in vitro ADME; conditions: incubated at 37° C., read-out: Human Plasma T½ (converted)
How it was run: as §1

Compound | Ki [1] [nM] | half-life at 0.1 mg/mL [2] [h] | half-life at 0.1 mg/mL [3] [h]
CCCCCCCCCC(=O)NCCC[C@H](NC(=O)[C@H](CCCCN)NC(=O)[C@H](CCCCN)NC(=O)CNC(=O)[C@H](CCCCN)NC(=O)[C@H](CCC(N)=O)NC(=O)[C@H](C)NC(=O)[C@H](CC(C)C)NC(=O)[C@H](CC(C)C)NC(=O)[C@H](Cc1c[nH]c2ccccc12)NC(=O)[C@H](CC(N)=O)NC(=O)[C@@H](NC(=O)[C@H](Cc1ccccc1)NC(=O)[C@H](CC(=O)O)NC(=O)[C@H](CCC(N)=O)NC(=O)[C@H](CCC(N)=O)NC(=O)[C@H](Cc1c[nH]cn1)NC(=O)[C@@H](NC(=O)[C@H](CCCCN)NC(=O)[C@H](CC(=O)O)NC(=O)[C@H](CCSC)NC(=O)[C@H](C)NC(=O)[C@@H](NC(=O)[C@H](CO)NC(=O)[C@H](Cc1ccc(O)cc1)NC(=O)[C@H](CC(=O)O)NC(=O)[C@H](CO)NC(=O)C1(NC(=O)CCCCCCCCC)CCCCC1)[C@@H](C)CC)[C@@H](C)CC)C(C)C)C(=O)N[C@@H](CC(=O)O)C(=O)N[C@@H](Cc1c[nH]c2ccccc12)C(=O)N[C@@H](CCCCN)C(=O)N[C@@H](Cc1c[nH]cn1)C(=O)N[C@@H](CC(N)=O)C(=O)N[C@H](C(=O)N[C@H](C(=O)N[C@@H](CCC(N)=O)C(=O)O)[C@@H](C)O)[C@@H](C)CC [Example 21, [CH3-(CH2)8-C(O)-A6c^7, Orn^34(N-C(O)-(CH2)8-CH3)]hGIP(7-42)-OH] (Decanoyl-[Ac6c]SDYSIAMDKIHQQDFVNWLLAQKGKK[Orn](Decanoyl)DWKHNITQ-OH) | 163 | > 72 | 8
CCCCCC(=O)N[C@@H](CO)C(=O)N[C@@H](CC(=O)O)C(=O)N[C@@H](Cc1ccc(O)cc1)C(=O)N[C@@H](CO)C(=O)N[C@H](C(=O)N[C@@H](C)C(=O)N[C@@H](CCSC)C(=O)N[C@@H](CC(=O)O)C(=O)N[C@@H](CCCCN)C(=O)N[C@H](C(=O)N[C@@H](Cc1c[nH]cn1)C(=O)N[C@@H](CCC(N)=O)C(=O)N[C@@H](CCC(N)=O)C(=O)N[C@@H](CC(=O)O)C(=O)N[C@@H](Cc1ccccc1)C(=O)N[C@H](C(=O)N[C@@H](CC(N)=O)C(=O)N[C@@H](Cc1c[nH]c2ccccc12)C(=O)N[C@@H](CC(C)C)C(=O)N[C@@H](CC(C)C)C(=O)N[C@@H](C)C(=O)N[C@@H](CCC(N)=O)C(=O)N[C@@H](CCCCN)C(=O)N[C@@H](CSC1CC(=O)N(CCC)C1=O)C(=O)N[C@@H](CCCCN)C(=O)N[C@@H](CCCCN)C(=O)N[C@@H](CC(N)=O)C(=O)N[C@@H](CC(=O)O)C(=O)N[C@@H](Cc1c[nH]c2ccccc12)C(=O)N[C@@H](CCCCN)C(=O)N[C@@H](Cc1c[nH]cn1)C(=O)N[C@@H](CC(N)=O)C(=O)N[C@H](C(=O)N[C@H](C(=O)N[C@@H](CCC(N)=O)C(=O)O)[C@@H](C)O)[C@@H](C)CC)C(C)C)[C@@H](C)CC)[C@@H](C)CC (stereo partly shown) [Example 41, [CH3-(CH2)4-C(O)-Ser^8, Cys(Psu)^31]hGIP(8-42)-OH] (Hexanoyl-SDYSIAMDKIHQQDFVNWLLAQKC(X1)KKNDWKHNITQ-OH) |  | 3.7 | 5.9
CCCC[C@H](NC(=O)[C@H](C)NC(=O)[C@@H](NC(=O)[C@H](CO)NC(=O)[C@H](Cc1ccc(O)cc1)NC(=O)[C@H](CC(=O)O)NC(=O)[C@H](CO)NC(=O)[C@@H](NC(=O)[C@H](Cc1ccccc1)NC(=O)[C@@H](NC(=O)CNC(=O)[C@@H]1CCCN1C(=O)CCc1ccc(O)cc1)[C@@H](C)O)[C@@H](C)CC)[C@@H](C)CC)C(=O)N[C@@H](CC(=O)O)C(=O)N[C@@H](CCCCN)C(=O)N[C@H](C(=O)N[C@@H](Cc1c[nH]cn1)C(=O)N[C@@H](CCC(N)=O)C(=O)N[C@@H](CCC(N)=O)C(=O)N[C@@H](CC(=O)O)C(=O)N[C@@H](Cc1ccccc1)C(=O)N[C@H](C(=O)N[C@@H](CC(N)=O)C(=O)N[C@@H](Cc1c[nH]c2ccccc12)C(=O)N[C@@H](CC(C)C)C(=O)N[C@@H](CC(C)C)C(=O)N[C@@H](C)C(=O)N[C@@H](CCC(N)=O)C(=O)N[C@@H](CCCCN)C(=O)NCC(=O)N[C@@H](CCCCN)C(=O)N[C@@H](CCCCN)C(=O)N[C@@H](CC(N)=O)C(=O)N[C@@H](CC(=O)O)C(=O)N[C@@H](Cc1c[nH]c2ccccc12)C(=O)N[C@@H](CCCCN)C(=O)N[C@@H](Cc1c[nH]cn1)C(=O)N[C@@H](CC(N)=O)C(=O)N[C@H](C(=O)N[C@H](C(=O)N[C@@H](CCC(N)=O)C(=O)O)[C@@H](C)O)[C@@H](C)CC)C(C)C)[C@@H](C)CC [Example 43, (4Hppa^2, Pro^3, Nle^14)hGIP(2-42)-OH] |  | 2.3 | > 53
CC[C@H](C)[C@H](NC(=O)[C@H](CCCCN)NC(=O)[C@H](CC(=O)O)NC(=O)[C@H](CCSC)NC(=O)C(C)(C)NC(=O)[C@@H](NC(=O)[C@H](CO)NC(=O)[C@H](Cc1ccc(O)cc1)NC(=O)[C@H](CC(=O)O)NC(=O)[C@H](CO)NC(=O)[C@@H](NC(=O)[C@H](Cc1ccccc1)NC(=O)[C@@H](NC(=O)CNC(=O)[C@H](CCC(=O)O)NC(=O)CCc1ccc(O)cc1)[C@@H](C)O)[C@@H](C)CC)[C@@H](C)CC)C(=O)N[C@@H](Cc1c[nH]cn1)C(=O)N[C@@H](CCC(N)=O)C(=O)N[C@@H](CCC(N)=O)C(=O)N[C@@H](CC(=O)O)C(=O)N[C@@H](Cc1ccccc1)C(=O)N[C@H](C(=O)N[C@@H](CC(N)=O)C(=O)N[C@@H](Cc1c[nH]c2ccccc12)C(=O)N[C@@H](CC(C)C)C(=O)N[C@@H](CC(C)C)C(=O)N[C@@H](C)C(=O)N[C@@H](CCC(N)=O)C(=O)N[C@@H](CCCCN)C(=O)NCC(=O)N[C@@H](CCCCN)C(=O)N[C@@H](CCCCN)C(=O)N[C@@H](CC(N)=O)C(=O)N[C@@H](CC(=O)O)C(=O)N[C@@H](Cc1c[nH]c2ccccc12)C(=O)N[C@@H](CCCCN)C(=O)N[C@@H](Cc1c[nH]cn1)C(=O)N[C@@H](CC(N)=O)C(=O)N[C@H](C(=O)N[C@H](C(=O)N[C@@H](CCC(N)=O)C(=O)O)[C@@H](C)O)[C@@H](C)CC)C(C)C [Example 44, (4Hppa^2, Aib^13)hGIP(2-42)-OH)] |  | 9.9 | 48.8
CC[C@H](C)[C@H](NC(=O)[C@H](CO)NC(=O)[C@H](Cc1ccc(O)cc1)NC(=O)[C@H](CC(=O)O)NC(=O)[C@H](CO)NC(=O)[C@@H](NC(=O)[C@H](Cc1ccccc1)NC(=O)[C@@H](NC(=O)CNC(=O)[C@H](CCC(=O)O)NC(=O)CCc1ccc(O)cc1)[C@@H](C)O)[C@@H](C)CC)C(=O)N[C@@H](C)C(=O)NC1(C(=O)N[C@@H](CC(=O)O)C(=O)N[C@@H](CCCCN)C(=O)N[C@H](C(=O)N[C@@H](Cc2c[nH]cn2)C(=O)N[C@@H](CCC(N)=O)C(=O)N[C@@H](CCC(N)=O)C(=O)N[C@@H](CC(=O)O)C(=O)N[C@@H](Cc2ccccc2)C(=O)N[C@H](C(=O)N[C@@H](CC(N)=O)C(=O)N[C@@H](Cc2c[nH]c3ccccc23)C(=O)N[C@@H](CC(C)C)C(=O)N[C@@H](CC(C)C)C(=O)N[C@@H](C)C(=O)N[C@@H](CCC(N)=O)C(=O)N[C@@H](CCCCN)C(=O)NCC(=O)N[C@@H](CCCCN)C(=O)N[C@@H](CCCCN)C(=O)N[C@@H](CC(N)=O)C(=O)N[C@@H](CC(=O)O)C(=O)N[C@@H](Cc2c[nH]c3ccccc23)C(=O)N[C@@H](CCCCN)C(=O)N[C@@H](Cc2c[nH]cn2)C(=O)N[C@@H](CC(N)=O)C(=O)N[C@H](C(=O)N[C@H](C(=O)N[C@@H](CCC(N)=O)C(=O)O)[C@@H](C)O)[C@@H](C)CC)C(C)C)[C@@H](C)CC)CCCCC1 [Example 45, (4Hppa^2, A6c^14)hGIP(2-42)-OH] |  | 4.3 | 64.2
CC[C@H](C)[C@H](NC(=O)[C@H](CCCCN)NC(=O)[C@H](CC(=O)O)NC(=O)[C@H](CCSC)NC(=O)[C@H](C)NC(=O)[C@@H](NC(=O)C1(NC(=O)[C@H](Cc2ccc(O)cc2)NC(=O)[C@H](CC(=O)O)NC(=O)[C@H](CO)NC(=O)[C@@H](NC(=O)[C@H](Cc2ccccc2)NC(=O)[C@@H](NC(=O)CNC(=O)[C@H](CCC(=O)O)NC(=O)CCc2ccc(O)cc2)[C@@H](C)O)[C@@H](C)CC)CCCCC1)[C@@H](C)CC)C(=O)N[C@@H](Cc1c[nH]cn1)C(=O)N[C@@H](CCC(N)=O)C(=O)N[C@@H](CCC(N)=O)C(=O)N[C@@H](CC(=O)O)C(=O)N[C@@H](Cc1ccccc1)C(=O)N[C@H](C(=O)N[C@@H](CC(N)=O)C(=O)N[C@@H](Cc1c[nH]c2ccccc12)C(=O)N[C@@H](CC(C)C)C(=O)N[C@@H](CC(C)C)C(=O)N[C@@H](C)C(=O)N[C@@H](CCC(N)=O)C(=O)N[C@@H](CCCCN)C(=O)NCC(=O)N[C@@H](CCCCN)C(=O)N[C@@H](CCCCN)C(=O)N[C@@H](CC(N)=O)C(=O)N[C@@H](CC(=O)O)C(=O)N[C@@H](Cc1c[nH]c2ccccc12)C(=O)N[C@@H](CCCCN)C(=O)N[C@@H](Cc1c[nH]cn1)C(=O)N[C@@H](CC(N)=O)C(=O)N[C@H](C(=O)N[C@H](C(=O)N[C@@H](CCC(N)=O)C(=O)O)[C@@H](C)O)[C@@H](C)CC)C(C)C [Example 46, (4Hppa^2, A6c^11)hGIP(2-42)-OH] |  | 11.9 | 30.8
